From patent US9598386B2, “Immunomodulatory compounds” (University of Strathclyde, priority 2012, dated 2017)
Where a name gives a salt, the structure may show the parent alone.

Assays:
[1] = test system: DBA/1 mice undergoing CIA; experiment: Collagen-induced arthritis (CIA) mouse model of rheumatoid arthritis; assay type: in vivo; settings: prophylactic treatment, 1 μg/dose at d-2, d0 and d21, versus PBS; FIG. 1
Description: DBA/1 mice undergoing CIA (PBS) were treated with SMAs S3 (1 μg/dose; S3-1) and S5 (1 μg/dose; S5-1) at d-2, d0 and d21 and monitored every second day for (A) articular score; (B) paw swelling; (C) incidence of CIA (articular score>2) and (D) incidence of severe pathology (articular score >4). Data in A & B are presented as mean values±SEM where PBS, n=28, S3, n=14 and S5, n=13 individual mice, except at d33 and d35 where PBS, n=14, S3, n=7 and S5, n=7 individual mice, and analysis was by Mann-Whitney test and *p<0.05, **p<0.01 and ***p<0.001 where blue * and black * represent PBS versus S3-1 and S5-1, respectively.

[2] = test system: Peritoneal-derived mast cells (PDMC); experiment: Mast cell degranulation after FcεRI crosslinking; assay type: cell-based; settings: pre-treated during IgE sensitisation, measured 1 h after FcεRI crosslinking; FIG. 2
Description: (§1) Peritoneal-derived mast cells (PDMC; panels A & D) or bone marrow-derived mast cells (BMM; B, C, E & F) were pre-treated with the indicated concentrations of S3 and S5 (μg/ml) during the IgE sensitisation phase and then degranulation measured 1 h (A & D) following crosslinking of the IgE-bound FcεRI receptors (XL) or not (Basal). Alternatively TNFα (B & E) or IL-6 (C & F) release was measured 24 h following FcεRI crosslinking. Data are presented as means±SD where n=3 and analysis is by 1-way ANOVA and Newman-Keuls post test where ***p<0.001.
(§2) S3 and S5 were also tested for their effects on another immune system cell type, the mast cell. Similar to macrophages, activation of mast cells for example via the high-affinity receptor for IgE results in degranulation, resulting in release of inflammatory mediators, and secretion of various cytokines.

[3] = test system: bone marrow-derived mast cells (BMM); experiment: Mast cell cytokine release after FcεRI crosslinking; assay type: cell-based; settings: pre-treated during IgE sensitisation, 24 h after FcεRI crosslinking; FIG. 2
Description: as §1, §2

[4] = test system: mouse model of asthma, ovalbumin-induced airway hypersensitivity; experiment: Ovalbumin-induced airway hypersensitivity (OAH) mouse model of asthma; assay type: in vivo; settings: for lung pathology (H & E staining of lung tissue) / eosinophil influx into the lungs (BALF): prophylactic treatment; for lung pathology (H & E staining of lung tissue): FIG. 3A; for eosinophil influx into the lungs (BALF): FIG. 3B; for neutrophil influx into the lungs (BALF): therapeutic treatment, FIG. 3C
Description: As a consequence of the mast cell findings S3 and […] were tested in a mouse model of asthma, ovalbumin-induced airway hypersensitivity (OAH). As can be shown in FIG. 3, both sulfones are able to inhibit infiltration of disease-causing eosinophils into the lungs and also overall lung pathology.

Row | SMILES | melting point | also measured
1 | Cc1ccc(CS(=O)(=O)CC[N+]2(C)CCCC2)cc1.[I-] [S8, 1-Methyl-1-{2-[(4-methylbenzyl)sulfonyl]ethyl}pyrrolidinium iodide] | 214 to 216 °C | –
2 | C[N+](C)(C)CCS(=O)(=O)Cc1ccc(Br)cc1 (as salt: methane sulfonate) [S1, N,N.N-trimethyl-2-1(4-bromobenzyl)sulfonyl{ethanaminiummethane sulfonate] | 187 to 188 °C | –
3 | CN(C)CCS(=O)(=O)Cc1ccc(Br)cc1 [S3, N-{2-[(4-Bromobenzyl)sulfonyl]ethyl}-N,N-dimethylamine] | 58 to 60 °C | development of arthritis (articular score, paw swelling, incidence) [1]: significantly suppressed the development of arthritis; mast cell degranulation [2]: suppressing degranulation; secretion of IL-6 by mast cells [3]: inhibiting secretion; secretion of TNF-α by mast cells [3]: inhibiting secretion; lung pathology (H & E staining of lung tissue) [4]: inhibits lung pathology; eosinophil influx into the lungs (BALF) [4]: inhibits; neutrophil influx into the lungs (BALF) [4]: inhibits neutrophil influx
4 | Cc1ccc(CS(=O)(=O)CC[N+](C)(C)C)cc1.[I-] [S5, N,N,N-trimethyl-2-[(4-methylbenzyl)sulfonyl]ethanaminium iodide] | 212 to 214 °C | development of arthritis (articular score, paw swelling, incidence) [1]: significantly suppressed the development of arthritis; mast cell degranulation [2]: suppressing degranulation; secretion of IL-6 by mast cells [3]: inhibiting secretion; secretion of TNF-α by mast cells [3]: inhibiting secretion; lung pathology (H & E staining of lung tissue) [4]: inhibits lung pathology; eosinophil influx into the lungs (BALF) [4]: inhibits; neutrophil influx into the lungs (BALF) [4]: inhibits neutrophil influx
5 | Cc1ccc(CS(=O)(=O)CCN(C)C)cc1 [S4, N,N-Di methyl-2-[(4-methylbenzyl)sulfonyl]ethanamine] | 68 to 70 °C | –
6 | CN(C)CCS(=O)(=O)Cc1ccc(F)cc1 [S27, N-{2-[(4-Fluorobenzyl)sulfonyl]ethyl}-N,N-dimethylamine] | 50 to 52 °C | –
7 | O=S(=O)(CCN1CCOCC1)Cc1cccc(F)c1 [S25, 4-{2-[(3-Fluorobenzyl)sulfonyl]ethyl}morpholine] | 74 to 76 °C | –
8 | Cc1ccc(CS(=O)(=O)CCCN2CCCC2)cc1 [S20, 1-{3-[(4-Methylbenzyl)sulfonyl]propyl}-pyrrolidine] | 84 to 86 °C | –

Second part, led by results:

Row | melting point | SMILES | also measured
9 | 76 to 78 °C | O=S(=O)(CCN1CCCC1)Cc1ccc(F)cc1 [S29, 1-{2-[(4-Fluorobenzyl)sulfonyl]ethyl}pyrrolidine] | –
10 | 66 to 68 °C | O=S(=O)(CCN1CCCC1)Cc1cccc(F)c1 [S26, 1-{2-[(3-Fluorobenzyl)sulfonyl]ethyl}pyrrolidine] | –
11 | 84 to 86 °C | Cc1ccc(CS(=O)(=O)CCN2CCCC2)cc1 [S7, 1-(2-[(4-Methylbenzyl)sulfonyl]ethyl)pyrrolidine] | –
12 | 72 to 74 °C | O=S(=O)(CCN1CCOCC1)Cc1ccc(F)cc1 [S28, 4-{2-[(4-Fluorobenzyl)sulfonyl]ethyl}morpholine] | –
13 | 196 to 198 °C | C[N+]1(CCS(=O)(=O)Cc2ccc(Br)cc2)CCCC1.[I-] [S10, 1-Methyl-1-{2-[(4-bromobenzyl)sulfonyllethyl]}pyrrolidinium iodide] | –
14 | 90 to 92 °C | O=S(=O)(CCN1CCCC1)Cc1ccc(Br)cc1 [S9, 1-{2-[(4-bromobenzyl}sulfonyl]ethyl}pyrrolidine] | –
15 | 92 to 93 °C | Cc1ccc(CS(=O)(=O)CCCN2CCOCC2)cc1 [S19, 4-{3-[(4-methylbenzyl)sulfonyl]propyl}morpholine] | –
16 | 181 to 183 °C | Cc1ccc(CS(=O)(=O)CCC[N+]2(C)CCOCC2)cc1.[I-] [S22, 4-methyl-4-{3-[(4-methylbenzyl)sulfonyl]propyl}morpholin-4-ium iodide] | –
